Experiments:
Format in all cases: in vivo
Spodoptera frugiperda = Spodoptera frugiperda test (spray treatment); details: foliar, 168 h, 500 g a. i./ha, 7 d, sprayed maize leaf discs, army worm caterpillars, read-out: % 7 d (activity; 100% = all caterpillars killed)
Source text: An appropriate preparation of active compound is produced by mixing 1 part by weight of active compound with the stated amounts of solvent and emulsifier and diluting the concentrate to the desired concentration using emulsifier-containing water.
Maize leaf discs (Zea mays) are sprayed with a preparation of active compound at the desired concentration and after they have dried off they are populated with caterpillars of the army worm (Spodoptera frugiperda).
After the desired time the activity is measured in %. Here 100% means that all of the caterpillars have been killed; 0% means that no caterpillar has been killed.

Phaedon cochleariae = assay: Phaedon test (spray treatment); details: 500 g a. i./ha, sprayed Chinese cabbage leaves, mustard beetle larvae
Source text: [table] An appropriate preparation of active compound is produced by mixing 1 part by weight of active compound with the stated amounts of solvent and emulsifier and diluting the concentrate to the desired concentration using emulsifier-containing water. Chinese cabbage leaves (Brassica pekinensis) are sprayed with a preparation of active compound at the desired concentration and after they have dried off they are populated with larvae of the mustard beetle (Phaedon cochleariae). After the desired time the activity is measured in %.

Aedes Aegypti = Aedes Aegypti test; details: 20 g a. i./ha, third larval stage (L3)
Method: An appropriate preparation of active compound is produced by mixing the active compound with the stated amounts of solvent and diluting the concentrate to the desired concentration with water.
The Aedsae aegypti larvae (third larval stage, L3) are treated with a preparation of active compound at the desired concentration.
After the desired time the activity is measured in %. Here 100%, means that all of the Aedsae aegypti have been killed; 0% means that no Aedsae aegypti have been killed, and -1 denotes that no evaluation was possible.

Structure (SMILES) | pest or weed control at 500 g/ha (Spodoptera frugiperda) [%] | % 7 d (activity; 100% = all beetle larvae killed) (Phaedon cochleariae) [%] | % 2 d (activity; 100% = all Aedes aegypti killed) (Aedes Aegypti) [%]
COc1c(Cl)cc(OCC=C(Cl)Cl)cc1/C(C)=N/OC(C)c1ccccc1 (centres unmarked) [Example 45] | 83 |  | 
COc1c(Cl)cc(OCC=C(Cl)Cl)cc1/C(C)=N/OCCc1ccc([N+](=O)[O-])cc1 [Example 39] | 100 |  | 
COc1c(Cl)cc(OCC=C(Cl)Cl)cc1/C(C)=N/OCc1ccc(F)c(Oc2ccccc2)c1 [Example 30] | 100 |  | 
COc1c(Cl)cc(OCC=C(Cl)Cl)cc1/C(C)=N/OCCCc1ccc(F)cc1 [Example 42] | 100 |  | 
COc1c(Cl)cc(OCC=C(Cl)Cl)cc1C(=NO)C(C)C (racemic) [Example 14, 1-[3-Chloro-5-(3,3-dichloroallyloxy)-2-methoxyphenyl]-2-methylpropan-1-one oxime] |  | 100 | 80
COc1c(Cl)cc(OCC=C(Cl)Cl)cc1/C(C)=N/OCCOc1ccc(C(F)(F)F)cn1 [Example 21] | 100 |  | 
COc1c(Cl)cc(OCC=C(Cl)Cl)cc1/C(C)=N/OCc1ccc(OC(F)(F)F)cc1 [Example 29] | 100 |  | 
COc1c(Cl)cc(OCC=C(Cl)Cl)cc1/C(C)=N/OCCCCOc1ncc(C(F)(F)F)cc1Cl [Example 23] | 100 |  | 
COc1c(Cl)cc(OCC=C(Cl)Cl)cc1/C(C)=N/OCCCCOc1c(Cl)cc(C(F)(F)F)cc1Cl [Example 24] | 100 |  | 
COc1c(Cl)cc(OCC=C(Cl)Cl)cc1/C(C)=N/OCCCCOc1ccc(C(F)(F)F)cn1 [Example 22] | 100 |  | 
COc1c(Cl)cc(OCC=C(Cl)Cl)cc1/C(C)=N/OCCc1ccc(NC(=O)OC(C)(C)C)cc1 [Example 41] | 100 |  | 
COc1c(Cl)cc(OCC=C(Cl)Cl)cc1/C(C)=N/OCc1ccc(Oc2ccc(SC)cc2)cc1 [Example 49] | 100 |  | 
COc1c(Cl)cc(OCC=C(Cl)Cl)cc1/C(C)=N/OCCc1ccc(NC(=O)C2(C)CC2)cc1 [Example 40] | 100 |  | 
